The values below come from patent publication US20030118671A1, “Formulation containing peanut leaf extract and its preparation” (priority 1999, published 2003).

Experiment [1] concerns mice. Conditions: mouse, in vivo; cited from earlier work.
Experiment [2] concerns spleen, thymus and lymph node. As to the kind of experiment: Immune organs weight assay. The experiment is classed as in vivo, Kunming mice. Conditions: mice, day 8; leaf extract 84.8 g/1 kg orally 7 days; cortisone acetate 50 mg/1 kg i.m. 3 times. An excerpt:
Organ weights of Spleen, thymus and lymph node in animals are increased by most of the immunopotentiating agents, but decreased by immunosuppressive agents. So the assay was used to investigate the effect of the preparation containing leaf extract of A. hypogaea on immunological function.
Animals: male and female (1:1) Kunming mice (provided by Shanghai Bioproduct Institute) were used.
Drugs: leaf extract of A. hypogaea, provided by Shanghai Zhoaxiang Chinese Medicinal Herbs Factory. Injection of cortisone acetate was provided by Shanghai Ninth Pharmaceutical Factory.
Methods: The animals were divided into groups at random after weighting. Mice were administered with 84.8 g/1 kg body weight diluted leaf extract of A. hypogaea (in terms of crude drugs) orally once per day for 7 days. 50 mg/1 kg cortisone acetate was injected intramuscularly (totally 3 times), on 2, 4, 6 days after the administration of leaf extract of A. hypogaea. 0.2 ml/10 g body weight physiological saline was administrated orally in control group, once per day for 7 days. Animals were sacrificed on the day 8 by bleeding from orbit vein. Then, spleen, thymus and lymph node (jaw, axillary fossa, groin) were taken out and weighed immediately. Each organic weight was shown as mg/10 g body weight.

In experiment [3] the test system is mononuclear macrophage. As to the kind of experiment: Carbon particulate clearance test. It is filed as in vivo. To be noted: mice, day 8 after seven days of drug; the values are: carbon clearance K value. The text has this:
This method was used to observe the phagocytosis of mononuclear macrophage. Immunopotentiators can activate the macrophage of mice, and enhance the phagocytosis thereof. In contrast, immunosuppressants suppress these effects. Therefore, K values were increased or decreased by these two kinds of drugs, respectively
Animals and drugs were same to those used above.
Methods: After oral administration of drugs or physiological saline, or intramuscular injection of […], for seven days, 0.05 mL/10 g body weight injected through tail vein in mice on day 8. 20 μL blood was acquired from orbit vein, in 1 and 5 minutes after injection, added to 0.1%Na2CO3 respectively, and shaken up. Optical density was detected with Model-72 spectrophotometer at λ=680 nm. K values were calculated. The results were statistically analyzed and p values were assessed by t-test.

The subject of experiment [4] is spleen cells. As to the kind of experiment: Spleen cell rosette test (RFC method). The experiment is classed as in vivo, mice. To be noted: 4 days after SRBC immunisation. Here is the method:
(§1) Peripheral blood of mouse, spleen cells rosette formation method. This method was used to observe the effect of drugs on antigen combining cell during the earlier stage of immune, which was used to screen immunopotentiator or immunosuppressant. 7.5 mg cyclophosphamide (manufactured by Shanghai Twelve Pharmaceutical Factory) per 1 kg of body weight of male mouse was injected intraperitoneally. According the recommended method for screening immune drugs disclosed by a person, each group was administrated and immured by injection sheep red blood cell (SRBC). After 4 days, peripheral blood and spleen cell suspension (approximately 9 million spleen cells per milliliter) were obtained from mice, and 1% SRBC and 0.1 mL inactivated calf blood serum were added thereto, intermixed and centrifuged under low-speed for 10 minutes. Then 1% toluidine blue was added in minor amount along the wall of the test tubes. Cell pellet was slightly dispersed by pipette. Well-mixed cell suspension was dropped to blood cell counting chamber and the number of rosette in 1 mm^3 was counted under a microscope. Once lymphocyte was surrounded by more than five SRBC, it was regarded as a rosette.

For experiment [5], the system named is peripheral blood of mouse. As to the kind of experiment: Peripheral blood rosette test (RFC method). The experiment is classed as in vivo, mice. Conditions: 4 days after SRBC immunisation. Here is the method:
as §1

As for `C=CC(C)(O)CCC=C(C)C` (stereo not shown) [Linalool], the “sedative-hypnotic effect (literature)” value in experiment [1] was “positive effects on the sedative-hypnotic”.

As for `CC(=O)OCC(=O)[C@@]1(O)CC[C@H]2[C@@H]3CCC4=CC(=O)CC[C@]4(C)[C@H]3C(=O)C[C@@]21C` [cortisone, cortisone acetate], in experiment [2], the lymph node weight is 0.12 ± 0.05 mg/10 g body weight, the thymus weight is reported as 3.77 ± 0.83 mg/10 g body weight and the weight of spleen was 2.58 ± 1.00 mg/10 g body weight. Moreover, the carbon clearance K value in experiment [3] worked out at 0.00587 ± 0.0033.

Take `O=P1(N(CCCl)CCCl)NCCCO1` (stereo not shown) [cyclophosphamide]: the rosette percent came out at 20.50 ± 4.29 in experiment [4] and 15.93 ± 3.35 in experiment [5].
